Results from paper PMC7179119, “A New Positron Emission Tomography Probe for Orexin Receptors Neuroimaging” (Molecules, 2020).
Where two headings read alike, the source gives them in different places.

What was measured:
Experiment in all cases: PDSP off-target radioligand binding assay
H2 = H2 (Homo sapiens, UniProt P25021)
Procedure, shortened: (§1)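 Single-point screen, 10 µM test compound, n=4; hot ligand ~Kd; NSB with 10 µM reference; 90 min RT, dark; PEI-soaked filter harvest, cold washes, scintillation count; % inhibition.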

5-HT2B = target: T1, 5-HT2B (Homo sapiens, UniProt P41595)
T1 construct: NIMH PDSP
T1 sequence (P41595 whole entry, species assumed): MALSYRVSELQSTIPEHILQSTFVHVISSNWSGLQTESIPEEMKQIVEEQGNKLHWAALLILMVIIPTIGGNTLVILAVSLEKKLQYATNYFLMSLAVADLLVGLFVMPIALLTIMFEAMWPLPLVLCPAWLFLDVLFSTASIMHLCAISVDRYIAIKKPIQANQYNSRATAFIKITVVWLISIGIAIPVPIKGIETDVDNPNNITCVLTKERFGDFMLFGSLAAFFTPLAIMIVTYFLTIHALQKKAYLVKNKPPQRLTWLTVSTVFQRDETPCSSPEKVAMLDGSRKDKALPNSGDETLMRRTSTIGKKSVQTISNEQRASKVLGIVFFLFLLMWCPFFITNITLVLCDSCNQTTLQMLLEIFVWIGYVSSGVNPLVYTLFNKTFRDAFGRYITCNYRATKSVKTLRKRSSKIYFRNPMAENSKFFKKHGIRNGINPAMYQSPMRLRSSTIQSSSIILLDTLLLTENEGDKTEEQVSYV
Procedure, shortened: as §1

Alpha1B = target: T2, Alpha1B (Homo sapiens, UniProt P35368)
T2 construct: NIMH PDSP
T2 sequence (P35368 1-520): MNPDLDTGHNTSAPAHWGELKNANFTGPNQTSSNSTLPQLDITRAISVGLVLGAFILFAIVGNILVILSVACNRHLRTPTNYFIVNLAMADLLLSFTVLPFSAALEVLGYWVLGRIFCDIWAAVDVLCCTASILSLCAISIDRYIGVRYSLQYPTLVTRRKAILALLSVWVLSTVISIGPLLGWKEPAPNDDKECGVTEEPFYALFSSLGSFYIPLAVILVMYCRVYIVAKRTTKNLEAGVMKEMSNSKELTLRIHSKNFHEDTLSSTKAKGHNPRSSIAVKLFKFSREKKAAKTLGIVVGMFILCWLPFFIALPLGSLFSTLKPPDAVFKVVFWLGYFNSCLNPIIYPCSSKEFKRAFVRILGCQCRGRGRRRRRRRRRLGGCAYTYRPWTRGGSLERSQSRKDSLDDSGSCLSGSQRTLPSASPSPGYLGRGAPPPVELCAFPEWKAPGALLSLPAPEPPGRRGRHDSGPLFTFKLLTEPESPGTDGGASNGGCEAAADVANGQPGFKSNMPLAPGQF
Procedure, shortened: as §1

H4 = H4 (Homo sapiens, UniProt Q9H3N8)
Sequence of H4 (Q9H3N8 whole entry): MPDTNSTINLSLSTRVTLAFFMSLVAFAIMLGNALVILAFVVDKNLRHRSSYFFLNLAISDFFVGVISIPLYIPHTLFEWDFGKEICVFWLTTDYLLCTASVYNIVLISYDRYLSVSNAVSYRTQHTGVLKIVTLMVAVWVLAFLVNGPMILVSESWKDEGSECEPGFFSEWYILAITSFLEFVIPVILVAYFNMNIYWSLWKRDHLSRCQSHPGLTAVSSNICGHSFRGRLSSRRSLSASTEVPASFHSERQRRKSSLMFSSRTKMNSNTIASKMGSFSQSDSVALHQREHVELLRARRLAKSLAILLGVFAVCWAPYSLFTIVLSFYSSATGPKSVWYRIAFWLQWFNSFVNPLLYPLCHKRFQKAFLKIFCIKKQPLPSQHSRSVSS
Procedure, shortened: as §1

GABAA = conditions: 10 µM
Procedure, shortened: as §1

Alpha1A = target: T3, Alpha1A (Homo sapiens, UniProt P35348)
T3 construct: NIMH PDSP
T3 sequence (P35348 1-466): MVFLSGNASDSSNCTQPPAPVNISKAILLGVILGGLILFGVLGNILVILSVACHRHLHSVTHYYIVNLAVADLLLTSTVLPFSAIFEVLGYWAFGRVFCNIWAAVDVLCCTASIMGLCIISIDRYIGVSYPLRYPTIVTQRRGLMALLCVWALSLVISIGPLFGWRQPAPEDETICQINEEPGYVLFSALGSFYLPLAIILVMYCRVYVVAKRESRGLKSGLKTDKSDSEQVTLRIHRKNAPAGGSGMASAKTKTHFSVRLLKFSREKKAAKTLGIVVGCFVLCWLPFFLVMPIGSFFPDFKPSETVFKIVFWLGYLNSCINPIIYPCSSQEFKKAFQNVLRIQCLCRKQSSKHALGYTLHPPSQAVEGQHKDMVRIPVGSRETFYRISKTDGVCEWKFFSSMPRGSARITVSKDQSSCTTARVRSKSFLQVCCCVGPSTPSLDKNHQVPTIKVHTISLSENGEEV
Procedure, shortened: as §1

5-HT3 = target: T4, 5-HT3 (Homo sapiens, UniProt P46098)
T4 construct: NIMH PDSP
T4 sequence (P46098 24-478): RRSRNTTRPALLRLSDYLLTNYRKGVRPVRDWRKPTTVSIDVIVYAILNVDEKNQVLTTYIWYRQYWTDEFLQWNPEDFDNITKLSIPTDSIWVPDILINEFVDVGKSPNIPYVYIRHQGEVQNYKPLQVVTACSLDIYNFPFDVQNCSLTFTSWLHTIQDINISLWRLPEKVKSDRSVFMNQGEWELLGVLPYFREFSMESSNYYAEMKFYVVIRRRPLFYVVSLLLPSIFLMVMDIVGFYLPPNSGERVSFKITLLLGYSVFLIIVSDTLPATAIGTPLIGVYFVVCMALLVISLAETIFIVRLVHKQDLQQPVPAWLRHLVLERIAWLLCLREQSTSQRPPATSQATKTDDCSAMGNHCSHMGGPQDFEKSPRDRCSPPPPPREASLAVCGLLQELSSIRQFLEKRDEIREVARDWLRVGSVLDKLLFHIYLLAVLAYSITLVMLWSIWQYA
Procedure, shortened: as §1

[1] = quadruplicate, read-out: Mean±SD % inhibition
[2] = replicate 1, read-out: % Inhibition 1
[3] = replicate 2, read-out: % Inhibition 2
[4] = replicate 3, read-out: % Inhibition 3
[5] = replicate 4, read-out: % Inhibition 4

Sequence of H2 (P25021 whole entry): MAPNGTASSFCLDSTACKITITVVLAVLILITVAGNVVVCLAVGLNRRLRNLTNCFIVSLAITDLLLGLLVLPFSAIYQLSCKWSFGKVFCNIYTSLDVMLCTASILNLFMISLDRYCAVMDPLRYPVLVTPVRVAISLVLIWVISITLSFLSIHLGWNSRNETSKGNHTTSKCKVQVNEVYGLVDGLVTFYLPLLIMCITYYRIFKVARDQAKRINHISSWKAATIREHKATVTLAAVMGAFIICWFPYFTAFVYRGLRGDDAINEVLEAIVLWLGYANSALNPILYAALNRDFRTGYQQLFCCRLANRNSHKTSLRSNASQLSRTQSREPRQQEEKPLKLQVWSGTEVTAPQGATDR

Structure (SMILES): COc1ccnc(N2CCC3(CCCN(Cc4cn(C)c5ccccc45)C3=O)CC2)n1 [CW24]
- inhibition at 10 µM (H2; [1]): 24.2 ± 1.43%
- inhibition at 10 µM (H2; [2]): 25.4%
- inhibition at 10 µM (H2; [3]): 24.4%
- inhibition at 10 µM (H2; [4]): 24.8%
- inhibition at 10 µM (H2; [5]): 22.1%
- inhibition at 10 µM (5-HT2B; [1]): 21.6 ± 7.7%
- inhibition at 10 µM (5-HT2B; [2]): 45.9%
- inhibition at 10 µM (5-HT2B; [3]): 11.3%
- inhibition at 10 µM (5-HT2B; [4]): 11.2%
- inhibition at 10 µM (5-HT2B; [5]): 17.8%
- inhibition at 10 µM (Alpha1B; [1]): -20.7 ± 12.8%
- inhibition at 10 µM (Alpha1B; [2]): -6.11%
- inhibition at 10 µM (Alpha1B; [3]): -16.3%
- inhibition at 10 µM (Alpha1B; [4]): -36.7%
- inhibition at 10 µM (Alpha1B; [5]): -23.6%
- inhibition at 10 µM (H4; [1]): 3.44 ± 8.21%
- inhibition at 10 µM (H4; [2]): -8.25%
- inhibition at 10 µM (H4; [3]): 9.91%
- inhibition at 10 µM (H4; [4]): 8.32%
- inhibition at 10 µM (H4; [5]): 3.76%
- Mean±SD % inhibition (GABAA; quadruplicate): 11.56 ± 11.5%
- % Inhibition 1 (GABAA; replicate 1): 24.87%
- % Inhibition 2 (GABAA; replicate 2): 0.04%
- % Inhibition 3 (GABAA; replicate 3): 4%
- % Inhibition 4 (GABAA; replicate 4): 17.31%
- inhibition at 10 µM (Alpha1A; [1]): -7.99 ± 16.7%
- inhibition at 10 µM (Alpha1A; [2]): 17%
- inhibition at 10 µM (Alpha1A; [3]): -16.2%
- inhibition at 10 µM (Alpha1A; [4]): -17.6%
- inhibition at 10 µM (Alpha1A; [5]): -15.1%
- inhibition at 10 µM (5-HT3; [1]): -4 ± 15.6%
- inhibition at 10 µM (5-HT3; [2]): -7.18%
- inhibition at 10 µM (5-HT3; [3]): 2.23%
- inhibition at 10 µM (5-HT3; [4]): -23.9%
- inhibition at 10 µM (5-HT3; [5]): 12.9%
